Measured values reported in the supplement of paper PMC11451515.

Test system: P12-Ichikawa
Assay: cell viability relative to DMSO control; higher = less cytotoxic
Details: 48 h
How it was run: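 In 1536-well plates, 5 μl of leukemia cells were seeded per well: 500 cells/well for NOMO1 or SEM and 1000 cells/well for P12-Ichikawa. Each line had first been adapted for at least four passages in each medium. Library compounds in DMSO were pin-dosed at 11 threefold concentrations between 47 μM and 0.79 nM, and CellTiter-Glo One luminescence was read after 48 h at 37°C. Viability is a per-plate percentage relative to DMSO wells, with cell-free wells as background.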

[1] = HPLM + 10% dialyzed FBS, 0.000781 µM
[2] = HPLM + 10% dialyzed FBS, 0.00234 µM
[3] = HPLM + 10% dialyzed FBS, 0.00702 µM
[4] = HPLM + 10% dialyzed FBS, 0.0211 µM
[5] = HPLM + 10% dialyzed FBS, 0.0632 µM
[6] = HPLM + 10% dialyzed FBS, 0.19 µM
[7] = HPLM + 10% dialyzed FBS, 0.569 µM
[8] = HPLM + 10% dialyzed FBS, 1.71 µM
[9] = HPLM + 10% dialyzed FBS, 5.12 µM
[10] = HPLM + 10% dialyzed FBS, 15.4 µM
[11] = HPLM + 10% dialyzed FBS, 46.1 µM
[12] = RPMI 5 mM glucose + 10% FBS, 0.000781 µM
[13] = RPMI 5 mM glucose + 10% FBS, 0.00234 µM
[14] = RPMI 5 mM glucose + 10% FBS, 0.00702 µM
[15] = RPMI 5 mM glucose + 10% FBS, 0.0211 µM
[16] = RPMI 5 mM glucose + 10% FBS, 0.0632 µM
[17] = RPMI 5 mM glucose + 10% FBS, 0.19 µM
[18] = RPMI 5 mM glucose + 10% FBS, 0.569 µM
[19] = RPMI 5 mM glucose + 10% FBS, 1.71 µM
[20] = RPMI 5 mM glucose + 10% FBS, 5.12 µM
[21] = RPMI 5 mM glucose + 10% FBS, 15.4 µM
[22] = RPMI 5 mM glucose + 10% FBS, 46.1 µM
[23] = RPMI 5 mM glucose + 10% dialyzed FBS, 0.000781 µM
[24] = RPMI 5 mM glucose + 10% dialyzed FBS, 0.00234 µM
[25] = RPMI 5 mM glucose + 10% dialyzed FBS, 0.00702 µM
[26] = RPMI 5 mM glucose + 10% dialyzed FBS, 0.0211 µM
[27] = RPMI 5 mM glucose + 10% dialyzed FBS, 0.0632 µM
[28] = RPMI 5 mM glucose + 10% dialyzed FBS, 0.19 µM
[29] = RPMI 5 mM glucose + 10% dialyzed FBS, 0.569 µM
[30] = RPMI 5 mM glucose + 10% dialyzed FBS, 1.71 µM
[31] = RPMI 5 mM glucose + 10% dialyzed FBS, 5.12 µM
[32] = RPMI 5 mM glucose + 10% dialyzed FBS, 15.4 µM
[33] = RPMI 5 mM glucose + 10% dialyzed FBS, 46.1 µM

| Structure (SMILES) | cell viability [1] | cell viability [2] | cell viability [3] | cell viability [4] | cell viability [5] | cell viability [6] | cell viability [7] | cell viability [8] | cell viability [9] | cell viability [10] | cell viability [11] | cell viability [12] | cell viability [13] | cell viability [14] | cell viability [15] | cell viability [16] | cell viability [17] | cell viability [18] | cell viability [19] | cell viability [20] | cell viability [21] | cell viability [22] | cell viability [23] | cell viability [24] | cell viability [25] | cell viability [26] | cell viability [27] | cell viability [28] | cell viability [29] | cell viability [30] | cell viability [31] | cell viability [32] | cell viability [33] |
| --- | --- | --- | --- | --- | --- | --- | --- | --- | --- | --- | --- | --- | --- | --- | --- | --- | --- | --- | --- | --- | --- | --- | --- | --- | --- | --- | --- | --- | --- | --- | --- | --- | --- |
| COC(=O)C1C2CC3c4[nH]c5cc(OC)ccc5c4CCN3CC2CC(OC(=O)c2cc(OC)c(OC)c(OC)c2)C1OC (centres undefined) | 106% | 109% | 112% | 107% | 115% | 111% | 101% | 105% | 110% | 107% | 102% | 115% | 120% | 121% | 114% | 107% | 109% | 118% | 112% | 111% | 113% | 91% | 121% | 106% | 119% | 114% | 104% | 113% | 105% | 106% | 107% | 99.5% | 102% |
| CN[C@@H]1Cc2cccc3[nH]c(=O)n(c23)C1 | 124% | 123% | 114% | 115% | 122% | 117% | 108% | 117% | 108% | 106% | 111% |  |  |  |  |  |  |  |  |  |  |  | 122% | 122% | 116% | 130% | 117% | 123% | 115% | 109% | 108% | 111% | 105% |
| CN[C@@H](C)C(=O)N[C@H]1CN(C(=O)CC(C)C)CC[C@H]2CC[C@@H](C(=O)NC(c3ccccc3)c3ccccc3)N2C1=O | 98.3% | 104% | 107% | 111% | 110% | 102% | 103% | 100% | 96.7% | 14.8% | 10.2% | 96.8% | 110% | 109% | 111% | 114% | 112% | 112% | 108% | 87.3% | 18.1% | 10.2% | 90.1% | 113% | 101% | 115% | 105% | 111% | 112% | 107% | 97.8% | 43.3% | 16.1% |
| CC(O)(C#Cc1ccc2c(c1)N(c1nc(N)ncc1Cl)CC2)c1nccs1 (centres undefined) | 111% | 123% | 121% | 71% | 116% | 123% | 126% | 121% | 117% | 116% | 96.8% | 107% | 118% | 123% | 79.2% | 127% | 115% | 121% | 127% | 126% | 115% | 74.3% |  |  |  |  |  |  |  |  |  |  |  |
| O=C(O)/C=C/c1ccc(O)c(O)c1 | 118% | 113% | 105% | 112% | 110% | 103% | 107% | 99.2% | 105% | 88.3% | 18.3% | 106% | 111% | 111% | 112% | 108% | 106% | 113% | 117% | 105% | 93.4% | 6.72% | 100% | 120% | 105% | 116% | 117% | 110% | 115% | 103% | 99.7% | 88.7% | 7.01% |
| COc1ccc(C2Sc3ccccc3N(CCN(C)C)C(=O)C2OC(C)=O)cc1 (centres undefined) | 102% | 115% | 103% | 108% | 112% | 121% | 112% | 102% | 109% | 112% | 93.9% | 101% | 112% | 110% | 108% | 104% | 112% | 110% | 107% | 99.8% | 103% | 98.3% | 122% | 108% | 108% | 112% | 113% | 112% | 110% | 109% | 104% | 105% | 92.8% |
| CC[C@H](NC(=O)[C@H](C)NC)C(=O)N1C[C@@H](O)C[C@H]1Cc1c(-c2[nH]c3cc(F)ccc3c2C[C@@H]2C[C@H](O)CN2C(=O)[C@H](CC)NC(=O)[C@H](C)NC)[nH]c2cc(F)ccc12 | 115% | 129% | 124% | 137% | 137% | 125% | 139% | 131% | 32.8% | 31.3% | 110% |  |  |  |  |  |  |  |  |  |  |  |  |  |  |  |  |  |  |  |  |  |  |
| O=C(O)CCn1c2c(c3ccccc31)C[C@H](N[S+](=O)([O-])c1ccc(F)cc1)CC2 | 117% | 113% |  | 110% | 113% | 106% | 113% | 111% | 106% | 100% | 73.6% | 119% | 120% | 121% | 121% | 120% | 122% | 122% | 111% | 114% | 115% | 95.5% | 110% | 116% | 116% | 114% | 115% | 103% | 109% | 108% | 102% | 92.2% | 66.9% |
